This experiment deals with T1, α4β1 integrin (Homo sapiens, UniProt P05556+P13612).
T1 construct: Ramos cells fluorescently labeled with calcein; endogenous in cells; host or cells: Ramos cells
Nature of the experiment: Inhibition of adhesion of calcein-labeled Ramos cells to CS1 (fibronectin) peptide-conjugated ovalbumin. The following applies: Table 1; for inhibition at 100 µM: Ramos, compound at a concentration of 100 μM, read-out: % A (percent inhibition of cell adhesion); for IC50: dose required to give 50% inhibition, Ramos cell adhesion to CS1-ovalbumin, 30 minutes at 37° C. Type of experiment: cell-based. The method, then:
The ability of compounds of the present invention to inhibit binding is described in detail hereinafter in the Examples by a procedure in which a 26-amino acid peptide containing the CS1 sequence of fibroncctin with an N-terminal Cys was coupled to maleimide activated ovalbumin. Ovalbumin and CS1 conjugated ovalbumin were coated onto 96-well polystyrene plates at 5 μg/ml in TBS (50 mM Tris, pH 7.5; 150 mM NaCl) at 4° C. for 16 hours. The plates were washed three times with TBS and blocked with TBS containing 3% BSA at room temperature for 4 hours. Blocked plates were washed three times in binding buffer (TBS; 1 mM MgCl2; 1 mM CaCl2; 1 mM MnCl2) prior to assay. Ramos cells fluorescently labeled with calcein AMC-3099 were resuspended in binding buffer (10^7 cells/ml) and diluted 1:2 with same buffer with or without compound. The cells were added immediately to the wells (2.5×10^5 cells/well) and incubated for 30 minutes at 37° C. Following three washes with binding buffer, adherent cells were lysed and quantitated using a fluorometer.
IC50 is defined as the dose required to give 50% inhibition. The lower the IC50 value and the greater the percentage of inhibition, the more efficient the compound is at prevention of cell adhesion. A stands for inhibition in Table 1, and the percent inhibition indicates the inhibition of cell adhesion when compound is included in the assay at a concentration of 100 μM.

The structures appear in SMILES notation.

Consider 25 molecules from patent US6262084A, “Compounds that inhibit the binding of integrins to their receptors” (Texas Biotechnology Corporation, priority 1999, dated 2001).

T1 sequence (P13612 34-1032): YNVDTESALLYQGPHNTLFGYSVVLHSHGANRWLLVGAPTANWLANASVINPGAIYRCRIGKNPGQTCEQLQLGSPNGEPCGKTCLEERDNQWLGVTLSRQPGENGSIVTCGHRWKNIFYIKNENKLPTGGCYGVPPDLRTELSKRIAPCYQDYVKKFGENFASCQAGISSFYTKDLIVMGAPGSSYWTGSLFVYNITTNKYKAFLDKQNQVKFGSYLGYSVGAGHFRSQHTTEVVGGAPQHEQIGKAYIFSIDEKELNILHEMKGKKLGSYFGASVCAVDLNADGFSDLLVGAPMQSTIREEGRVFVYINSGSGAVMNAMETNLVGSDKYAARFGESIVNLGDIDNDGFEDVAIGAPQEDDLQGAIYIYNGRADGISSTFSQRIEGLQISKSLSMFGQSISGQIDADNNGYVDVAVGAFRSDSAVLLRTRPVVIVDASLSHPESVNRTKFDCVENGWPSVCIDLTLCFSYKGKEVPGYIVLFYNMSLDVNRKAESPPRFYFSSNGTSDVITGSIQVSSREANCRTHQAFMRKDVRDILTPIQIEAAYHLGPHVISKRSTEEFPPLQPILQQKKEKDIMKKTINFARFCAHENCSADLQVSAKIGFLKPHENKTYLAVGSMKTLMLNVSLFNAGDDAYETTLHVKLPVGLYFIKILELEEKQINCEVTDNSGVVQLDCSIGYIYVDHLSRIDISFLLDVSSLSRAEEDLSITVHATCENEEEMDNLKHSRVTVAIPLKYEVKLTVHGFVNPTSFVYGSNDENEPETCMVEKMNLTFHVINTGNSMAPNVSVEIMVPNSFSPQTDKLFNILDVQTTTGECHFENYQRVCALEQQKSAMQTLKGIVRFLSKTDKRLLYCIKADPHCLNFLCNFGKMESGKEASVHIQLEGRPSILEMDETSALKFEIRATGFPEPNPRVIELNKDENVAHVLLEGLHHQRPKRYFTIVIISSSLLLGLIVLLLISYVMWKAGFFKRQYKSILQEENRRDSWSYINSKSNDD
T1 sequence (P05556 21-798): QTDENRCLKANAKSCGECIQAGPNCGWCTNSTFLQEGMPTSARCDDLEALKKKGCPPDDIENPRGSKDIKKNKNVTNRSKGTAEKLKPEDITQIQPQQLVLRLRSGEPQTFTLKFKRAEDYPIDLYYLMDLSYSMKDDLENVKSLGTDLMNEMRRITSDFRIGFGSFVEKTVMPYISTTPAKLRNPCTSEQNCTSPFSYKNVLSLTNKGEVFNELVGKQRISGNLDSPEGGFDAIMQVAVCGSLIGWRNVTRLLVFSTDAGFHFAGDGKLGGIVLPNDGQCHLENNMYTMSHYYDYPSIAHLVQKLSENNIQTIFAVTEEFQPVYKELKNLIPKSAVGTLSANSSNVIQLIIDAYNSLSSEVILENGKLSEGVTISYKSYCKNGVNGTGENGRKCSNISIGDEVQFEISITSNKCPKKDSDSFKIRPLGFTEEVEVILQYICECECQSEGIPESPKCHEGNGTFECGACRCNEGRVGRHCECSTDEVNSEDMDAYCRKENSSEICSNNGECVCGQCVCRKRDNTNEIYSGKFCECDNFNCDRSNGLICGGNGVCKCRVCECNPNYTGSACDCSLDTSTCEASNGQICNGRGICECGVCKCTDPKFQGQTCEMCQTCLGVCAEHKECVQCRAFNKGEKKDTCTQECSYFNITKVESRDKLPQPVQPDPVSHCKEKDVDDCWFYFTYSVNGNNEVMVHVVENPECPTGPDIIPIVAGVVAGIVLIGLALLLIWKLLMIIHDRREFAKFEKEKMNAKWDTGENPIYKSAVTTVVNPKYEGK

Take `COc1ccc(CNC(=O)[C@@H](CC(C)C)NC(=O)NC(CC(=O)O)c2ccc3c(c2)OCO3)cc1` (stereo partly drawn) [3-(1,3-benzodioxol-5-yl)-3-({[((1R)-1-{[(4-methoxybenzyl)amino]carbonyl}-3-methylbutyl)amino]carbonyl}amino)propanoic acid]: the inhibition – broadly, the relative decrease from the control value, in per cent – at 100 µM was 66% and the IC50 – broadly, the concentration at which inhibition is half-maximal – is 45 µM.

With `COc1ccc(CNC(=O)[C@H](CC(C)C)NC(=O)NC(CC(=O)O)c2ccc3c(c2)OCO3)cc1` (stereo partly drawn) [3-(1,3-benzodioxol-5-yl)-3-({[((1S)-1-{[(4-methoxybenzyl)amino]carbonyl}-3-methylbutyl)amino]carbonyl}amino)propanoic acid], the inhibition at 100 µM was 100% and the IC50 was 0.5 µM.

With `CC(C)[C@H](CSCc1ccccc1)NC(=O)NC(CC(=O)O)c1ccc2c(c1)OCO2` (stereo partly drawn) [3-(1,3-benzodioxol-5-yl)-3-{[({(1R)-1-[(benzylsulfanyl)methyl]-2-methylpropyl}amino)carbonyl]amino}propanoic acid], the inhibition at 100 µM is 83% and the concentration for half-maximal inhibition (IC50) was 40 µM.

In the case of `CC(C)[C@@H](CSCc1ccccc1)NC(=O)NC(CC(=O)O)c1ccc2c(c1)OCO2` (stereo partly drawn) [3-(1,3-benzodioxol-5-yl)-3-{[({(1S)-1-[(benzylsulfanyl)methyl]-2-methylpropyl}amino)carbonyl]amino}propanoic acid], the inhibition at 100 µM was 100% and the IC50 was 10 µM.

Consider `CC(C)[C@@H](CS(=O)(=O)Cc1ccccc1)NC(=O)NC(CC(=O)O)c1ccc2c(c1)OCO2` (stereo partly drawn) [3-(1,3-benzodioxol-5-yl)-3-{[({(1S)-1-[(benzylsulfonyl)methyl]-2-methylpropyl}amino)carbonyl]amino}propanoic acid], for which the inhibition at 100 µM was 92% and the IC50 is 35 µM.

For the molecule `CC(C)[C@@H](CSc1ccccc1)NC(=O)NC(CC(=O)O)c1ccc2c(c1)OCO2` (stereo partly drawn) [3-(1,3-benzodioxol-5-yl)-3-{[({(1S)-2-methyl-1-[(phenylsulfanyl)methyl]propyl}amino)carbonyl]amino}propanoic acid], the inhibition at 100 µM was 99% and the IC50 is 5 µM.

As to `Cc1ccccc1NC(=O)Nc1ccc(CNC(=O)[C@H](CC(C)C)NC(=O)NC(CC(=O)O)c2ccc3c(c2)OCO3)cc1` (stereo partly drawn) [3-(1,3-benzodioxol-5-yl)-3-{[({(1S)-3-methyl-1-[({4-[(2-toluidinocarbonyl)amino]benzyl}amino)carbonyl]butyl}amino)carbonyl]amino}propanoic acid], the inhibition at 100 µM is 100% and the IC50 is 0.02 µM.

For the molecule `CSCC[C@@H](CSc1ccccc1)NC(=O)NCCC(=O)O` [3-{[({(1S)-3-(methylsulfanyl)-1-[(phenylsulfanyl)methyl]propyl}amino)carbonyl]amino}propanoic acid], the inhibition at 100 µM is 96% and the IC50 was 25 µM.

For the molecule `O=C(O)C[C@H](NC(=O)N[C@@H](CCCCNC(=O)OCc1ccccc1)C(=O)NCc1cccs1)C(=O)O` [(2S)-2-({[((1S)-5-{[(benzyloxy)carbonyl]amino}-1-{[(2-thienylmethyl)amino]carbonyl}pentyl)amino]carbonyl}amino)butanedioic acid], the inhibition at 100 µM was 89% and the IC50 was 45 µM.

In the case of `CC(C)[C@@H](CSc1ccccc1)NC(=O)N[C@H](CC(=O)O)c1ccc2c(c1)OCO2` [(3R)-3-(1,3-benzodioxol-5-yl)-3-{[({(1S)-2-methyl-1-[(phenylsulfanyl)methyl]propyl}amino)carbonyl]amino}propanoic acid], the inhibition at 100 µM was 83% and the IC50 was 35 µM.

For the molecule `O=C(O)C[C@H](NC(=O)N[C@H](CSc1ccccc1)CS(=O)(=O)Cc1ccccc1)c1ccc2c(c1)OCO2` [(3S)-3-(1,3-benzodioxol-5-yl)-3-(((((1R)-2-(benzylsulfonyl)-1-((phenylsulfanyl)methyl)ethyl)amino)carbonyl)amino)propanoic acid], the inhibition at 100 µM is 100% and the IC50 is 1 µM.

`CC(C)[C@@H](CSc1ccccc1)NC(=O)N[C@@H](CC(=O)O)c1ccc2c(c1)OCO2` [(3S)-3-(1,3-benzodioxol-5-yl)-3-(((((1S)-2-methyl-1-((phenylsulfanyl)methyl)propyl)amino)carbonyl)amino)propanoic acid]: the inhibition at 100 µM was 100% and the IC50 was 2.5 µM.

As for `CSCC[C@@H](CSc1ccccc1)NC(=O)N[C@@H](CC(=O)O)c1ccc2c(c1)OCO2` [(3S)-3-(1,3-benzodioxol-5-yl)-3-(((((1S)-3-(methylsulfanyl)-1-((phenylsulfanyl)methyl)propyl)amino)carbonyl)amino)propanoic acid], the inhibition at 100 µM was 100% and the IC50 is 0.3 µM.

As to `CC(C)[C@@H](CSCCCc1ccccc1)NC(=O)N[C@@H](CC(=O)O)c1ccc2c(c1)OCO2` [(3S)-3-(1,3-benzodioxol-5-yl)-3-({[((1S)-2-methyl-1-{[(3-phenylpropyl)sulfanyl]methyl}propyl)amino]carbonyl}amino)propanoic acid], the inhibition at 100 µM is 99% and the IC50 is 20 µM.

`O=C(O)C[C@H](NC(=O)NCCSc1ccccc1)c1ccc2c(c1)OCO2` [(3S)-3-(1,3-benzodioxol-5-yl)-3-[({[2-(phenylsulfanyl)ethyl]amino}carbonyl)amino]propanoic acid]: the inhibition at 100 µM is 100% and the IC50 is 6 µM.

In the case of `CCCSC[C@@H](Cc1ccccc1)NC(=O)N[C@@H](CC(=O)O)c1ccc2c(c1)OCO2` [(3S)-3-(1,3-benzodioxol-5-yl)-3-[({[(1R)-1-benzyl-2-(propylthio)ethyl]amino}carbonyl)amino]propanoic acid], the inhibition at 100 µM is 100% and the IC50 is 2 µM.

As to `CCCSC[C@H](NC(=O)N[C@@H](CC(=O)O)c1ccc2c(c1)OCO2)c1ccccc1` [(3S)-3-(1,3-benzodioxol-5-yl)-3-[({[(1R)-1-phenyl-2-(propylthio)ethyl]amino}carbonyl)amino]propanoic acid], the inhibition at 100 µM is 100% and the IC50 was 25 µM.

`CC(C)(C)OC(=O)C[C@H](NC(=O)N[C@@H](CC(=O)O)c1ccc2c(c1)OCO2)c1ccc2c(c1)OCO2` [(3S)-3-(1,3-benzodioxol-5-yl)-3-[({[(1S)-1-(1,3-benzodioxol-5-yl)-3-(tert-butoxy)-3-oxopropyl]amino}carbonyl)amino]propanoic acid]: the inhibition at 100 µM is 100% and the 50% inhibitory concentration (IC50) is 4 µM.

Regarding `CSCC[C@@H](CSc1cccc(NS(C)(=O)=O)c1)NC(=O)N[C@@H](CC(=O)O)c1ccc2c(c1)OCO2` [(3S)-3-(1,3-benzodioxol-5-yl)-3-[({[(1S)-1-[({3-[(methylsulfonyl)amino]phenyl}thio)methyl]-3-(methylthio)propyl]amino}carbonyl)amino]propanoic acid], the inhibition at 100 µM was 100% and the IC50 is 0.4 µM.

Regarding `CSCC[C@@H](CSc1ccc(NCc2ccccc2C)cc1)NC(=O)N[C@@H](CC(=O)O)c1ccc2c(c1)OCO2` [(3S)-3-(1,3-benzodioxol-5-yl)-3-[({[(1S)-1-[({4-[(2-methylbenzyl)amino]phenyl}thio)methyl]-3-(methylthio)propyl]amino}carbonyl)amino]propanoic acid], the inhibition at 100 µM was 93% and the IC50 was 2 µM.

`CSCC[C@@H](CSc1ccc(NS(=O)(=O)Cc2ccccc2)cc1)NC(=O)N[C@@H](CC(=O)O)c1ccc2c(c1)OCO2` [(3S)-3-(1,3-benzodioxol-5-yl)-3-[({[(1S)-1-[({4-[(benzylsulfonyl)amino]phenyl}sulfanyl)methyl]-3-(methylsulfanyl)propyl]amino}carbonyl)amino]propanoic acid]: the inhibition at 100 µM is 100% and the IC50 was 0.3 µM.

In the case of `C[C@@H](CSc1ccccc1)NC(=O)N[C@@H](CC(=O)O)c1ccc2c(c1)OCO2` [(3S)-3-(1,3-benzodioxol-5-yl)-3-[({[(1S)-1-methyl-2-(phenylsulfanyl)ethyl]amino}carbonyl)amino]propanoic acid], the inhibition at 100 µM is 100% and the IC50 was 3 µM.

In the case of `CSCC[C@@H](CSc1ccccc1C)NC(=O)N[C@@H](CC(=O)O)c1ccc2c(c1)OCO2` [(3S)-3-(1,3-benzodioxol-5-yl)-3-[({[(1S)-1-{[(2-methylphenyl)sulfanyl]methyl}-3-(methylsulfanyl)propyl]amino}carbonyl)amino]propanoic acid], the inhibition at 100 µM was 100% and the IC50 is 0.3 µM.

Take `CSCC[C@@H](CSc1cccc(C)c1)NC(=O)N[C@@H](CC(=O)O)c1ccc2c(c1)OCO2` [(3S)-3-(1,3-benzodioxol-5-yl)-3-[({[(1S)-1-{[(3-methylphenyl)sulfanyl]methyl}-3-(methylsulfanyl)propyl]amino}carbonyl)amino]propanoic acid]: the inhibition at 100 µM was 100% and the IC50 was 0.3 µM.

With `CSCC[C@@H](CSc1ccc(Cl)cc1)NC(=O)N[C@@H](CC(=O)O)c1ccc2c(c1)OCO2` [(3S)-3-(1,3-benzodioxol-5-yl)-3-[({[(1S)-1-{[(4-chlorophenyl)sulfanyl]methyl}-3-(methylsulfanyl)propyl]amino}carbonyl)amino]propanoic acid], the inhibition at 100 µM is 100% and the half-maximal inhibitory concentration (IC50) is 3 µM.
